Test results reported in patent US20250313588A1, “NOVEL PYRROLOPYRIMIDINONE CARBOXAMIDE COMPOUND FOR INHIBITING CDK, STEREOISOMER THEREOF OR PHARMACEUTICALLY ACCEPTABLE SALT THEREOF, AND PHARMACEUTICAL COMPOSITION FOR TREATING CANCER, COMPRISING SAME AS ACTIVE INGREDIENT” (Seoul National University R&DB Foundation, priority 2022, published 2025).
One block for each molecule: values may come before it.

Experiments:
[1] = Plasma metabolic stability assay (mouse plasma)
Protocol: (§4) DMSO was used as a diluent to prepare stock solutions of a test substance and a positive control at a concentration of 10 mM. The positive control stock solution was then diluted with 70% acetonitrile to a working concentration of 0.2 mM, and then the test substance stock solution was diluted with 70% acetonitrile to a working concentration of 1 mM. A quench reagent consisted of acetonitrile containing tolbutamide and propranolol (provided as an internal standard).
(§5) Positive control and test substance working solutions were spiked into plasma at a concentration of 1 μM and 5 μM, respectively. A 0-min sample was prepared by adding an 80 μL aliquot of each incubation mixture to 320 μL of the quench reagent to precipitate proteins. The mixture was incubated in a water bath at 37° C. with gentle shaking. Aliquots of 80 μL of each mixture were removed and placed in a clean 96-well plate containing 320 μL of the quench reagent to precipitate proteins at 15, 30, 45, and 60 min and centrifuged (5000×g, 15 minutes). 100 μL of the supernatant was placed in a 96-well assay plate to which 200 μL of ultrapure water had been added in advance, and analyzed by LC-MS/MS.

[2] = Plasma metabolic stability assay (human plasma); details: for half-life at 5 μM: human, plasma; for plasma stability (in words): summary of Table 1, 'in each group'
Protocol: as §4, §5

Huh-7 cells = assay: Cell colony forming assay, Huh-7; format: cell-based; details: Huh-7, 1 μM and 3 μM for 12 hours, 7 to 14 days; compared to Y102 or SNS-032
Protocol: (§1) To examine the anticancer efficacy of Y106 and Y108 in vitro, a cell colony formation assay was performed in hepatocellular carcinoma cell lines Huh-7 and Hep3B cells.
(§2) 500 cells were seeded into 6-well plates, and then treated with Y102, Y106,Y108, or SNS-032 at 1 μM and 3 μM for 12 hours, the medium was then replaced with fresh medium, and after 7 to 14 days, the cells were stained with 20% methanol+0.5% Crystal Violet for colony staining, and the number of cells was counted for quantitative analysis.

[3] = tested on: Huh-7 cells, hepatocellular carcinoma cell line; assay: Anticancer efficacy in mouse model transplanted with Huh-7 cells; format: in vivo, nude mice; details: Huh-7 xenograft; for changes in cancer growth: 20 mg/kg oral (SNS-032 intraperitoneal), five times a week for two weeks, compared to Y102 and SNS-032 groups; for weight of the extracted cancer: day 14
Protocol: (§3) To evaluate in vivo efficacy, 1×10^7 Huh-7 cells were transplanted into the right calves of nude mice to form cancer tissue, and then the anticancer efficacy of the new compositions Y106 and Y108 was compared with that of an existing CDK inhibitor Y102 or SNS-032.
The dose was the same for all mice (20 mg/kg), the vehicle, Y102, Y106, and Y108 were administered orally, and only SNS-032 was administered intraperitoneally. These were administered five times a week for two weeks, the size was measured twice a week using calipers to measure the changes in cancer growth and the mouse body weight for 14 days, and on day 14, the cancer tissue was removed to confirm the size and weight thereof.

[4] = tested on: A549 cells, non-small cell lung cancer cell line; assay: Anticancer efficacy in mouse model transplanted with A549 cells; format: in vivo, nude mice; details: A549 xenograft; for changes in cancer growth: 20 mg/kg oral (SNS-032 intraperitoneal), administered for five days, compared to Y102 and SNS-032 groups; for changes in cancer growth / changes in mouse body weight: 25 days; for changes in mouse body weight / weight of the extracted cancer: 20 mg/kg; for weight of the extracted cancer: day 25
Protocol: as §3, with “efficacy in a mouse model transplanted with A549 cells, a non-small cell lung cancer cell line, 1×10^6 A549” for “efficacy, 1×10^7 Huh-7”
The dose was the same for all mice (20 mg/kg), the vehicle, Y102, Y106, and Y108 were administered orally, and only SNS-032 was administered intraperitoneally. These were administered for five days, the size was measured twice a week using calipers to measure the changes in cancer growth and the mouse body weight for 25 days, and on day 25, the cancer tissue was removed to confirm the size and weight thereof.

Hep3B cells = assay: Cell colony forming assay, Hep3B; format: cell-based; details: 1 μM and 3 μM for 12 hours, 7 to 14 days, compared to Y102 or SNS-032
Protocol: as §1, §2

[5] = tested on: Hep3B cells, hepatocellular carcinoma cell line; assay: Anticancer efficacy in mouse model transplanted with Hep3B cells; format: in vivo, nude mice; details: Hep3B xenograft; for changes in cancer growth: 20 mg/kg oral (SNS-032 intraperitoneal), compared to Y102 and SNS-032 groups; for changes in cancer growth / changes in mouse body weight: 27 days; for changes in mouse body weight / weight of the extracted cancer: 20 mg/kg; for weight of the extracted cancer: day 27
From the text: as §3, with “efficacy using Hep3B cells, another hepatocellular carcinoma cell line, 3×10^6 Hep3B” for “efficacy, 1×10^7 Huh-7”
The dosage, administration schedule, and administration route were applied in the same manner as in the method performed in the mouse model transplanted with Huh-7 cells in Example 3. After administration of the new compositions and the existing CDK inhibitors, changes in cancer growth and mouse body weight were measured for 27 days, and then on day 27, the cancer tissues were removed to confirm the size and weight thereof.

[6] = plasma
Protocol: as §4, §5

[7] = plasma; remark: listed apart in the source
Protocol: as §4, §5

Molecule: CCC(C)(C)C(=O)OC[C@@H]1O[C@H](n2cnc(N)c3c(C(N)=O)c(Br)nc2-3)[C@@H](O)[C@@H]1OC(=O)C(C)(C)CC [Compound Y106, (2S,3S,4S,5S)-5-(4-amino-6-bromo-5-carbamoyl-1H-pyrrolo[2,3-d]pyrimidin-1-yl)-2-(((2,2-dimethylbutanoyl)oxy)methyl)-4-hydroxytetrahydrofuran-3-yl 2,2-dimethylbutanoate]
colony formation (Huh-7 cells): remarkably reduced
changes in cancer growth ([3]; 14 days): significantly inhibited cancer growth
weight of the extracted cancer ([3]; 20 mg/kg): least amount of cancer tissue
changes in cancer growth [4]: inhibited cancer growth more clearly
changes in mouse body weight [4]: no significant difference
weight of the extracted cancer [4]: least amount of cancer tissue
half-life at 5 μM [1]: 7.1 ± 0.07 min
colony formation (Hep3B cells): remarkably reduced
changes in cancer growth [5]: inhibited cancer growth more effectively
changes in mouse body weight [5]: no significant difference
weight of the extracted cancer [5]: least amount of cancer tissue
half-life at 5 μM [2]: > 720 min
plasma stability (in words) [2]: highest stability

Molecule: CCC(C)(C)C(=O)OC[C@@H]1O[C@H](n2cnc(N)c3c(C(N)=O)c(Br)nc2-3)[C@@H](O)[C@@H]1O [Compound Y107, ((2S,3S,4S,5S)-5-(4-amino-6-bromo-5-carbamoyl-1H-pyrrolo[2,3-d]pyrimidin-1-yl)-3,4-dihydroxytetrahydrofuran-2-yl)methyl 2,2-dimethylbutanoate]
half-life at 5 μM [1]: 6.91 ± 0.11 min
half-life at 5 μM [2]: 26.6 ± 4.33 min

Molecule: CC(C)(C)C(=O)OC[C@@H]1O[C@H](n2cnc(N)c3c(C(N)=O)c(Br)nc2-3)[C@@H](O)[C@@H]1OC(=O)C(C)(C)C [Compound Y108, (2S,3S,4S,5S)-5-(4-amino-6-bromo-5-carbamoyl-1H-pyrrolo[2,3-d]pyrimidin-1-yl)-4-hydroxy-2-((pivaloyloxy)methyl)tetrahydrofuran-3-yl pivalate]
colony formation (Huh-7 cells): remarkably reduced
changes in cancer growth ([3]; 14 days): significantly inhibited cancer growth
weight of the extracted cancer ([3]; 20 mg/kg): least amount of cancer tissue
changes in cancer growth [4]: inhibited cancer growth more clearly
changes in mouse body weight [4]: no significant difference
weight of the extracted cancer [4]: least amount of cancer tissue
half-life at 5 μM [1]: 7.25 ± 0.01 min
colony formation (Hep3B cells): remarkably reduced
changes in cancer growth [5]: inhibited cancer growth more effectively
changes in mouse body weight [5]: no significant difference
weight of the extracted cancer [5]: least amount of cancer tissue
half-life at 5 μM [2]: 700 ± 42.5 min
plasma stability (in words) [2]: highest stability

Molecule: CC1CC(OC(=O)C(O)c2ccccc2)CC(C)(C)N1C (stereo not drawn) [Eucatropin, reference compound]
half-life at 5 μM [1]: 32.6 ± 4.81 min
half-life at 5 μM [2]: 16.7 ± 0.38 min

Molecule: CC(C)(C)c1cnc(CSc2cnc(NC(=O)C3CCNCC3)s2)o1 [SNS-032, reference compound]
mouse body weight ([3]; 20 mg/kg, 14 days): slightly reduced
changes in mouse body weight [4]: no significant difference
changes in mouse body weight [5]: no significant difference

Continued, values first:

half-life at 5 μM [1]: 2.67 ± 0.2 min
half-life at 5 μM [2]: 20.5 ± 0.34 min
Molecule: CC(C)C(=O)OC[C@@H]1O[C@H](n2cnc(N)c3c(C(N)=O)c(Br)nc2-3)[C@@H](O)[C@@H]1OC(=O)C(C)C [Compound Y105, (2S,3S,4S,5S)-5-(4-amino-6-bromo-5-carbamoyl-1H-pyrrolo[2,3-d]pyrimidin-1-yl)-4-hydroxy-2-((isobutyryloxy)methyl)tetrahydrofuran-3-yl isobutyrate]

half-life at 5 μM [1]: 7.77 ± 0.13 min
half-life at 5 μM [2]: 280 ± 3.06 min
Molecule: NC(=O)c1c(Br)nc2n([C@H]3O[C@@H](COC(=O)C45CC6CC(CC(C6)C4)C5)C(O)[C@H]3O)cnc(N)c1-2 (stereo partly drawn) [Compound Y109, ((2S,3S,4S,5S)-5-(4-amino-6-bromo-5-carbamoyl-1H-pyrrolo[2,3-d]pyrimidin-1-yl)-3,4-dihydroxytetrahydrofuran-2-yl)methyl(3S,5S,7S)-adamantane-1-carboxylate]

T1/2(min) Human [6]: 4.57 ± 0.09 min
T1/2(min) Mouse [7]: 2.85 ± 0.02 min
Molecule: Ibulocydine
